We go through three compounds from article PMC11962395 (Molecular Cancer Therapeutics, 2024).

Some results are limits rather than exact numbers.

The target in data set [1] is G1–S phase transition 1 protein (Homo sapiens, UniProt P15170). The data set can be described thus: Neomorphic substrate degradation in Ramos cells: GSPT1. It counts as cell-based. The note with it: increasing concentrations, 24 hours.
A further data set concerns the target IKZF1 (Ikaros) (Homo sapiens, UniProt Q13422). Kind of data set: Neomorphic substrate degradation in Ramos cells: IKZF1. Type of data set: cell-based. The conditions noted are these: increasing concentrations, 24 hours.
Data set [2] deals with abiraterone-resistant tumors. The conditions noted are these: 10 mg/kg oral every day for 19 days, phase III.
In another data set the test system is VCaP xenografts. The data set can be described thus: Tumor growth inhibition, castrated VCaP xenograft model. Type of data set: in vivo, mice.
The target in another data set is CK1α (Homo sapiens, UniProt P48729+Q96SW2). Kind of data set: Neomorphic substrate degradation in Ramos cells: CK1α. It counts as cell-based.
Sequence of CK1α (P48729 whole entry): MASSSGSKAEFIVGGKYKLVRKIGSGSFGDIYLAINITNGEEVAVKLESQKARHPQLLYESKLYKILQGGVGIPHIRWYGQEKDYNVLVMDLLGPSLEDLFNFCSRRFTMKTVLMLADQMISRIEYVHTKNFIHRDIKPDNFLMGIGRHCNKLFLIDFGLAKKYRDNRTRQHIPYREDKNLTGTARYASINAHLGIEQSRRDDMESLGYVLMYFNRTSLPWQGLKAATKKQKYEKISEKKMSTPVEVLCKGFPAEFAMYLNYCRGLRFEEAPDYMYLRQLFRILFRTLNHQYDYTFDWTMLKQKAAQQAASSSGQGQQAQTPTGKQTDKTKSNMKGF
Sequence of CK1α (Q96SW2 whole entry): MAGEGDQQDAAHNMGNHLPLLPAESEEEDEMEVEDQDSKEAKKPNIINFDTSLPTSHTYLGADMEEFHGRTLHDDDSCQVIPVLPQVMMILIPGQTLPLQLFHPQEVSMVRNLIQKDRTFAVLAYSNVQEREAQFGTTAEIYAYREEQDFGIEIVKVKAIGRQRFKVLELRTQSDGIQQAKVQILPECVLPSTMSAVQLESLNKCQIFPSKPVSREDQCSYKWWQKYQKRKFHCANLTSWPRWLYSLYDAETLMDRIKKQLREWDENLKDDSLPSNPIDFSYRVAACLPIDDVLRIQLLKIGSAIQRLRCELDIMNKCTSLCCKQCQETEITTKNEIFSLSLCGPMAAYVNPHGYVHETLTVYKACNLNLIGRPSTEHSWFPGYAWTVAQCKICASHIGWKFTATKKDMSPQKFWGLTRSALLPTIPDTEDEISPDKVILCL
Sequence of CK1α (Q16531 whole entry partner): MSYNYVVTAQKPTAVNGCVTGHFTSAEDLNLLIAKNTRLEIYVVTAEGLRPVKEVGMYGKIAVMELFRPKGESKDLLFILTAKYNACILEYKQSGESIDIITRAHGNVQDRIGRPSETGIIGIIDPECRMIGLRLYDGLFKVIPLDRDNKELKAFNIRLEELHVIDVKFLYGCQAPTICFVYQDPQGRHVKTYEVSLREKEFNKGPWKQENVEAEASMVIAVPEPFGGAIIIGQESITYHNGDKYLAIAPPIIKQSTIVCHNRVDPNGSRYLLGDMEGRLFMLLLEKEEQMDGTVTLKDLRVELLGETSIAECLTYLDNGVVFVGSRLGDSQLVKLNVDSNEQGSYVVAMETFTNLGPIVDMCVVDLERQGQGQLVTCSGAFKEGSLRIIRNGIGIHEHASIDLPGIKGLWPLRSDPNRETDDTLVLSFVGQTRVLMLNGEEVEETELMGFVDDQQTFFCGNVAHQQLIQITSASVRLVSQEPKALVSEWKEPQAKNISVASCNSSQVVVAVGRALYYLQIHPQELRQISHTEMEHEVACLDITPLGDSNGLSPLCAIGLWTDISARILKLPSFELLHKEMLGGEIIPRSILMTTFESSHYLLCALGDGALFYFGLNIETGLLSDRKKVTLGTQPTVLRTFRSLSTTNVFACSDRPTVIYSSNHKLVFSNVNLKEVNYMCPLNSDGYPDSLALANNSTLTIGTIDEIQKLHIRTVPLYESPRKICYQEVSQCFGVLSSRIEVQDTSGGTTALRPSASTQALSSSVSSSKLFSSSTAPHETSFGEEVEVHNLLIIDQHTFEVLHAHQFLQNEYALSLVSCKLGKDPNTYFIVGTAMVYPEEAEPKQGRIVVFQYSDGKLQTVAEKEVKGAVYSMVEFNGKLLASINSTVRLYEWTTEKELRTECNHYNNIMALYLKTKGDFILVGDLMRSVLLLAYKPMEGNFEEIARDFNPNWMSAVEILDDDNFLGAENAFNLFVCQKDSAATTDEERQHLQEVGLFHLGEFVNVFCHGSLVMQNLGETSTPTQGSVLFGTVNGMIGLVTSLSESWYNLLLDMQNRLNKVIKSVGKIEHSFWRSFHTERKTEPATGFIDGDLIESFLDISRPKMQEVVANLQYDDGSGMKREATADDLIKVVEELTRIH
The nature of data set [3]: Animal body weights during treatment in prostate cancer mouse models. It counts as in vivo, mice.
In another data set the test system is VCaP cells. The data set can be described thus: VCaP cell proliferation assay. It counts as cell-based, human. The conditions noted are these: for antiproliferative effect with increasing R1881: 300 nmol/L bavdegalutamide or 1,000 nmol/L enzalutamide, co-treatment with increasing R1881, 5 days.
Data set [4] concerns nearly 4,000 detectable proteins in VCaP cells. Kind of data set: Proteomic screen in VCaP cells. Type of data set: cell-based, human. The conditions noted are these: 10 nmol/L, 8 hours, filter >2× degradation, P <0.05.
The test system of data set [5] is PSA. The data set can be described thus: Plasma PSA levels, patient-derived xenograft TM00298. Type of data set: in vivo, mice. The note with it: 10 mg/kg oral every day for 20 days, 16 hours after last dose. (Xenograft models place foreign cells or tissue in a host animal.)
The subject of another data set is AR. The data set can be described thus: AR degradation in CRBN-KO LNCaP and 22Rv1 cells with dox-inducible CRBN. It counts as cell-based.
The target in a further data set is IKZF3 (Aiolos) (Homo sapiens, UniProt Q9UKT9). Kind of data set: Neomorphic substrate degradation in Ramos cells: IKZF3. It counts as cell-based. The note with it: increasing concentrations, 24 hours.
Sequence of IKZF3 (Aiolos) (Q96SW2 whole entry partner): as the sequence (Q96SW2 whole entry) above
Sequence of IKZF3 (Aiolos) (Q16531 whole entry partner): as the sequence (Q16531 whole entry partner) above
Sequence of IKZF3 (Aiolos) (Q9UKT9 whole entry): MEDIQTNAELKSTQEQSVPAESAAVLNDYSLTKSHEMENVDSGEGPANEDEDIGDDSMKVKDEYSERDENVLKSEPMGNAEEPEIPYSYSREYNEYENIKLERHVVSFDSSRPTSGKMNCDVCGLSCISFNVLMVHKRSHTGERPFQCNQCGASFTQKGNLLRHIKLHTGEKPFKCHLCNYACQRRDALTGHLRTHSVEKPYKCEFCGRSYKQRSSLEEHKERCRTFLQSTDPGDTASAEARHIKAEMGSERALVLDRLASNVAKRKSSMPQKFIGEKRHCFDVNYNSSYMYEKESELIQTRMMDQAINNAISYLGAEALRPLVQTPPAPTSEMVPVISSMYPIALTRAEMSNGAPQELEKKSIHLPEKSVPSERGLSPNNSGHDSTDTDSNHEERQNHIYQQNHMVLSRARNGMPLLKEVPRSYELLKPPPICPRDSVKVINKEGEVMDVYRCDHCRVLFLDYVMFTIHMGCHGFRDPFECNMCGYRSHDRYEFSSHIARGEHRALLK
In another data set the test system is rat prostate tissue. Kind of data set: Rat prostate involution study. Type of data set: in vivo, rats. The conditions noted are these: 15 and 45 mg/kg oral every day for 10 days.
In another data set the target is SALL4 (Homo sapiens, UniProt Q96SW2+Q9UJQ4). The data set can be described thus: SALL4 degradation in SK-N-DZ cells. It counts as cell-based.
Sequence of SALL4 (Q9UJQ4 whole entry): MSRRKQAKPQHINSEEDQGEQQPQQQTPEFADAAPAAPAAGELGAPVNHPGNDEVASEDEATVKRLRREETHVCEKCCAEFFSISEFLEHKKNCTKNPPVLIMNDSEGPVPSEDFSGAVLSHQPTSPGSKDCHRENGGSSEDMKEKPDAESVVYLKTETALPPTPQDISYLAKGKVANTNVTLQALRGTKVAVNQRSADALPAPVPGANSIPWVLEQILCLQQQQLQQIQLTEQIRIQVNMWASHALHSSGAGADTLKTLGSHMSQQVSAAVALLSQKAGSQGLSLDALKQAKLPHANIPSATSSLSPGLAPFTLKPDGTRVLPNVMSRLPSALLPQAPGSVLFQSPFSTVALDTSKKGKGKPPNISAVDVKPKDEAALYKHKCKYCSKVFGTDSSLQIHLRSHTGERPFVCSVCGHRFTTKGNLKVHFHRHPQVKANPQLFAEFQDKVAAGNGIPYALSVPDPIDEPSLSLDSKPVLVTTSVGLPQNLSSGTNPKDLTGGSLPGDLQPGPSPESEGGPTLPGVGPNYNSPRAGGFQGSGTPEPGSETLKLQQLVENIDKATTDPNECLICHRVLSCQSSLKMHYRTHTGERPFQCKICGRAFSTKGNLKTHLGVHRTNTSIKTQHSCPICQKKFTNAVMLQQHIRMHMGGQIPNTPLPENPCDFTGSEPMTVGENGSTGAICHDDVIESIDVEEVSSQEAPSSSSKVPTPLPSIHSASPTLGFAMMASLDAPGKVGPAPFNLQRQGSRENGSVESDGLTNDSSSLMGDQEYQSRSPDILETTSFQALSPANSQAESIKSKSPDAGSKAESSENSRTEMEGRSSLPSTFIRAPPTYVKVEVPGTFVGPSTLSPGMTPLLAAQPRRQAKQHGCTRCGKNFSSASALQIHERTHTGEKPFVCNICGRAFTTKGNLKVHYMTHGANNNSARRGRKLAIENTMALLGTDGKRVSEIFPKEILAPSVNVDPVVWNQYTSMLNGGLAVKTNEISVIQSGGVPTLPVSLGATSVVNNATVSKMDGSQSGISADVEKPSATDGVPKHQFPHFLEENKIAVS
Sequence of SALL4 (Q96SW2 whole entry): as the sequence (Q96SW2 whole entry) above
Sequence of SALL4 (Q16531 whole entry partner): as the sequence (Q16531 whole entry partner) above
The test system of data set [6] is PSA synthesis in LNCaP/AR cells. The data set can be described thus: PSA suppression assay in LNCaP/AR cells. The conditions noted are these: 48 h, read-out: IC50 (inhibition of PSA synthesis). It counts as cell-based.
The test system of the next data set is TMPRSS–ERG. The data set can be described thus: ERG protein levels in tumors, enzalutamide-resistant VCaP model.
In data set [7] the test system is enzalutamide-resistant VCaP xenograft tumors. The data set can be described thus: Tumor growth inhibition, enzalutamide-resistant VCaP xenograft model. The conditions noted are these: 20 mg/kg oral every day for 28 days. It counts as in vivo, mice.
In data set [8] the test system is PSA. The note with it: TM00298 model; cited from earlier work.
The test system of data set [9] is patient-derived xenograft TM00298. The note with it: TM00298 model; cited from earlier work.
Data set [10] relates to human VCaP tumor xenografts. The conditions noted are these: intact VCaP xenograft model; cited from earlier work.
Where [11] appears, read: vs in vitro functional efficacy of 1 to 30 nmol/L.
Where [12] appears, read: enzalutamide-resistant VCaP model.

Sequence of IKZF1 (Ikaros) (Q96SW2 whole entry partner): as the sequence (Q96SW2 whole entry) above
Sequence of IKZF1 (Ikaros) (Q16531 whole entry partner): as the sequence (Q16531 whole entry partner) above
Sequence of IKZF1 (Ikaros) (Q13422 whole entry): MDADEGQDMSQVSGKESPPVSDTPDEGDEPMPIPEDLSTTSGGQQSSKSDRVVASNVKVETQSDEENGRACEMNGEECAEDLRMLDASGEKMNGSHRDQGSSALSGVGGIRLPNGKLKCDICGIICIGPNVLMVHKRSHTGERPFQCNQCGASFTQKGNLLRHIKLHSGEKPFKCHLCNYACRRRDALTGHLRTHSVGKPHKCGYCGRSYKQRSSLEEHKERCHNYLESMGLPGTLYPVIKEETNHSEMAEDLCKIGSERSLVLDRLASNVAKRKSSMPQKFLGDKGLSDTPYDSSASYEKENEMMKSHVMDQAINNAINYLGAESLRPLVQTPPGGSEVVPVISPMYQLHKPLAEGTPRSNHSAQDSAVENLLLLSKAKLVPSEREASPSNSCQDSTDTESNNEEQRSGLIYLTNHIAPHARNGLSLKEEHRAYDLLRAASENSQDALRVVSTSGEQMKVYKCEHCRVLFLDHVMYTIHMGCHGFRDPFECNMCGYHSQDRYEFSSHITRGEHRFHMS
Sequence of G1–S phase transition 1 protein (Q16531 whole entry): as the sequence (Q16531 whole entry partner) above
Sequence of G1–S phase transition 1 protein (Q96SW2 whole entry, further chain): as the sequence (Q96SW2 whole entry) above
Sequence of G1–S phase transition 1 protein (P15170 whole entry): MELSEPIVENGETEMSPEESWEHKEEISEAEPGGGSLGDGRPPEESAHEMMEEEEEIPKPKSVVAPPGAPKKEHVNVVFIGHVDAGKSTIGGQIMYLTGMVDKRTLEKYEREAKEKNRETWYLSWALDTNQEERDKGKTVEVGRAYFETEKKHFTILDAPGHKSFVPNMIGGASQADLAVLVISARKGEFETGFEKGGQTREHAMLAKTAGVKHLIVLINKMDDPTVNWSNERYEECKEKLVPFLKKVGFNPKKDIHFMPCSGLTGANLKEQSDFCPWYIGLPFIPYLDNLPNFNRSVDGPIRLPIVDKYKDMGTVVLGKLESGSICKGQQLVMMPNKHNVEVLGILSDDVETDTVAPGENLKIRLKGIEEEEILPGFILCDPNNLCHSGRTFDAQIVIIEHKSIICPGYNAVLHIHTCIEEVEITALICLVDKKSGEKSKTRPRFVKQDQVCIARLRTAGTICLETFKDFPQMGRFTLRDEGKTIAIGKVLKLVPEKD

Consider `N#Cc1ccc(O[C@H]2CC[C@H](NC(=O)c3ccc(N4CCC(CN5CCN(c6cc7c(cc6F)C(=O)N(C6CCC(=O)NC6=O)C7=O)CC5)CC4)nn3)CC2)cc1Cl` (some centres unmarked) [Bavdegalutamide, N-[(1r,4r)-4-(3-chloro-4-cyanophenoxy)cyclohexyl]-6-[4-({4-[2-(2,6-dioxopiperidin-3-yl)-6-fluoro-1,3-dioxo-2,3-dihydro-1H-isoindol-5-yl]piperazin-1-yl}methyl)piperidin-1-yl]pyridazine-3-carboxamide], for which the “G1–S phase transition 1 protein degradation” value in [1] is “did not lead to degradation”. The “IKZF1 (Ikaros) degradation” value at IKZF1 (Ikaros) was “did not lead to degradation”. Further, the “volume of abiraterone-resistant tumors” value in [2] is recorded as “reduced the volume of these abiraterone-resistant tumors”. The TGI amounted to 101% in the data set with VCaP xenografts (1 mg/kg oral) and 109% in the data set with VCaP xenografts (3 mg/kg oral). Further, the CK1α degradation entry on CK1α (Ramos cells, 300 to 1,000 nmol/L, 24 hours) is reported as “only modest degradation”. Further, the “window between AR and CK1α modulation” value at CK1α (setting [11]) was ≥ 10 ×. Besides, the body weights result in data set [3] (castrated VCaP xenograft model) and in data set [3] (setting [12]) was “Body weights were maintained” each time. Besides, in the data set on VCaP cells (charcoal-stripped serum), the “antiproliferative effect with increasing R1881” value is on record as “antiproliferative effects even in the presence of 1 nmol/L R1881”. The IC50 in the data set on VCaP cells (Homo sapiens, VCaP, 96 h, read-out: IC50 (inhibition of VCaP cell proliferation)) turned out to be 20 nM; in [6] it was 10 nM. The “proteins degraded in proteomic screen” value in data set [4] is recorded as “degradation of only AR”. The “reduction of circulating PSA levels” value in the data set with PSA [5] was determined as 93%. Besides, in the data set with AR, the “cereblon dependence of AR degradation” value was “cereblon dependent”. Besides, the “IKZF3 (Aiolos) degradation” value on IKZF3 (Aiolos) is “did not lead to degradation”. The “rat prostate involution vs enzalutamide 100 mg/kg” value in the data set on rat prostate tissue was “significantly higher activity than enzalutamide”. For the same compound, the SALL4 degradation entry at SALL4 (SK-N-DZ cells, 1,000 nmol/L, 24 hours) is reported as “modestly degraded”. For the same compound, on SALL4 (setting [11]), the “window between AR and SALL4 modulation” value is ≥ 10 ×. For the same compound, the “reduction in AR target gene TMPRSS–ERG in tumors” value in the data set on TMPRSS–ERG (3 or 10 mg/kg bavdegalutamide) is recorded as “Concomitant reductions”.
Regarding `CNC(=O)c1ccc(N2C(=S)N(c3ccc(C#N)c(C(F)(F)F)c3)C(=O)C2(C)C)cc1F` [Enzalutamide, reference compound], the TGI entry in [7] is reported as “TGI was not observed”. In addition, the “reduction of PSA levels” value in the data set with PSA [8] is listed as “approximately 50%”. Further, the body weights result in [3] (castrated VCaP xenograft model) and in data set [3] (setting [12]) was “Body weights were maintained” each time. Moreover, the figures for the “effect on tumor growth” value in [9] and in [10] were “without affecting tumor growth” and “little to no effect on tumor growth”, respectively. Besides, the “antiproliferative effect with increasing R1881” value with VCaP cells (charcoal-stripped serum) was “antiproliferative only at R1881 concentrations <0.1 nmol/L”. In the data set with TMPRSS–ERG (20 mg/kg enzalutamide), the “reduction in AR target gene TMPRSS–ERG in tumors” value was “this effect did not occur”.
Take `C[C@]1(O)CC[C@H]2[C@@H]3CCC4=CC(=O)CCC4=C3C=C[C@@]21C` [R1881, reference compound]: in the data set on VCaP cells (VCaP cells, charcoal-stripped serum), the “effect of R1881 alone on proliferation” value was “increased the proliferation of VCaP cells”.
